Laboratory results taken from PubChem BioAssay AID686920 (Broad Institute, 2013).

test system: A673 NR0B1-luciferase reporter, viability-normalised luminescence; assay: NR0B1 reporter signal reduction in A673 cells – cell-based, luciferase luminescence, cherry-pick, EWS/Fli inhibitor project, dose response (AID 686920)

Row | Compound | AC35
1 | C[C@@H]1CN([C@H](C)CO)C(=O)c2cc(NC(=O)CCCCCC(=O)Nc3ccccc3N)ccc2O[C@H]1CN(C)S(=O)(=O)c1ccc(Cl)cc1 | 35.2 µM
2 | COc1ccc(S(=O)(=O)N=Nc2c(O)[nH]c3ccccc23)cc1 | 34.7 µM
3 | Cc1ccc(S(=O)(=O)Nc2ccc3c(c2)C(=O)N([C@@H](C)CO)C[C@@H](C)[C@H](CN(C)Cc2ccc(C(F)(F)F)cc2)OCCCC[C@H](C)O3)cc1 | 7.44 µM
4 | CCc1cccc2c(C(=O)CN3C(=O)NC4(CCCCC4)C3=O)c[nH]c12 | 14.1 µM
5 | O=C(NC[C@@H]1N[C@@H](CO)[C@H]1c1ccc(C2=CCCCC2)cc1)c1cccc(F)c1 | 29.8 µM
6 | CCN(CC)C(=O)CN1C(=O)C(=O)c2ccccc21 | 42 µM
7 | COc1ccc(/C=C2\SC(=O)N(CCCC(=O)Nc3ccc(C(=O)O)cc3)C2=O)cc1 | 0.504 µM
8 | S=c1[nH]nc(-c2cc(-c3ccccc3)n[nH]2)n1/N=C/C(Br)=C/c1ccccc1 | 10.4 µM
9 | C=CCOc1ccccc1C(=O)/C=C1/C(=O)Nc2ccccc21 | 14.5 µM
10 | C[C@H](CO)N1C[C@H](C)[C@H](CN(C)Cc2ccc(C(=O)Nc3ccccc3N)cc2)Oc2ccc(NC(=O)C3CC3)cc2CC1=O | 37.8 µM
11 | C(=N\Nc1nc2ccccc2[nH]1)/c1ccccn1 | 5.58 µM
12 | C[C@@H]1CN([C@@H](C)CO)C(=O)c2cccc(N(C)C)c2O[C@@H]1CN(C)Cc1ccc(C(=O)Nc2ccccc2N)cc1 | 39.8 µM
13 | COc1ccc(C(CCNCc2ccc(OC(C)C)cc2)C(C)C)cc1 (configuration not stated) | 15.2 µM
14 | COc1ccccc1N(/N=C1\Sc2ccccc2C1=O)C(C)=O | 23.6 µM
15 | CC1(C(=O)NCc2ccco2)Cc2c(-c3cccc(C(N)=O)c3)ccnc2O1 (configuration not stated) | 5.37 µM
16 | CC(C)Oc1ccc(Br)cc1C(=O)N/N=C/c1c[nH]c2ccccc12 | 17.2 µM
17 | CO[C@H]1CN(C)C(=O)c2cc(NC(=O)NC(C)C)ccc2OC[C@H](C)N(Cc2ccc(-c3ccccn3)cc2)C[C@@H]1C | 5.22 µM
18 | O=C(O)c1ccccc1C(=O)Nc1ccc(Oc2cccc3ccccc23)cc1 | 2.28 µM
19 | O=C(C[C@@H]1CC[C@@H]2[C@H](COC[C@@H](O)CN2S(=O)(=O)c2ccc(F)cc2)O1)NCc1ccc(Cl)c(Cl)c1 | 61.8 µM
20 | N#CC1=C(N)Oc2cc(N)ccc2C1c1cccc(F)c1 (configuration not stated) | 1.96 µM
21 | C[C@@H]1CN([C@@H](C)CO)C(=O)c2cccc(NS(=O)(=O)c3ccc(F)cc3)c2O[C@@H]1CN(C)Cc1ccc(C(=O)Nc2ccccc2N)cc1 | 6.97 µM
22 | C[C@H]1CN([C@@H](C)CO)C(=O)c2cccc(NC(=O)CCCCCC(=O)Nc3ccccc3N)c2O[C@@H]1CN(C)Cc1ccc2c(c1)OCO2 | 15.2 µM
23 | CCOC(=O)[C@]12Cc3ccc(C)cc3[C@H]1N(C1CCCCC1)C(=O)c1ccccc12 | 5.49 µM
24 | COc1ccc2oc(-c3ccccc3)cc(=O)c2c1 | 8.22 µM
25 | Cc1c(Cl)cnc(NC(=O)COC(=O)c2ccc3ncsc3c2)c1Cl | 7.23 µM

Row | Compound | AC35
26 | Cc1cccc(/C=N/Nc2ccc3ccccc3n2)c1 | 1.6 µM
27 | O=C(CCCN1C(=O)/C(=C/c2ccccc2Cl)SC1=S)NNC(=O)c1ccc(Cl)cc1 | 8.68 µM
28 | CC(C)CC#Cc1ccc([C@@H]2[C@@H](CO)N3CCCCN(S(=O)(=O)c4ccc(F)cc4)C[C@H]23)cc1 | 14.1 µM
29 | CC(C)(C)C(=O)Nc1ccc(N=Nc2ccccc2)cc1 | 10.7 µM
30 | COc1ccccc1C(CCNCc1ccc(N(C)C)cc1)c1ccc(OC(C)C)cc1 (configuration not stated) | 24.9 µM
31 | C=C1C(=O)C=C[C@]2(C)C[C@@H]3OC(=O)[C@](C)(O)[C@H]3C[C@@H]12 | 10.7 µM
32 | C=C(C(=O)c1ccccc1)C(C)C(=C)C(=O)c1ccccc1 | 5.4 µM
33 | C[C@@H]1CN([C@@H](C)CO)C(=O)Cc2cc(NC(=O)Nc3ccc(C(F)(F)F)cc3)ccc2O[C@@H]1CN(C)Cc1ccc(C(=O)Nc2ccccc2N)cc1 | 7.91 µM
34 | Nc1nc(=S)c2ncn([C@@H]3O[C@H](CO)[C@@H](O)[C@H]3O)c2[nH]1 | 4.88 µM
35 | COC(=O)Cc1ccc(NC(=O)c2ccccc2Cl)cc1 | 2.6 µM
36 | O=C(O)c1cccc(N/N=C/c2cccs2)c1 | 1.25 µM
37 | O=c1[nH]c(/C=C2\C=Nc3ccccc32)c(O)n1Cc1ccccc1F | 4.21 µM
38 | O=C(c1nnsc1S(=O)c1ccc(Cl)cc1)N1CCOCC1 (configuration not stated) | 14.1 µM
39 | CC(C)c1ccc(OCc2cccc(C(=O)N/N=C/c3cccnc3)c2)cc1 | 1.03 µM
40 | O=C(NCc1cccnc1)C1Cc2c(-c3ccc(Cl)cc3)ccnc2O1 (configuration not stated) | 6.04 µM
41 | O=C1C(=O)N(CCS(=O)(=O)c2ccccc2)c2ccc(Cl)cc21 | 12.2 µM
42 | COc1cc(-c2coc3c(C(=O)NCc4ccc(C(F)(F)F)cc4)cccc23)ccc1O | 2.21 µM
43 | C[C@@H]1CN([C@@H](C)CO)C(=O)c2cc(NC(=O)Nc3ccccc3)ccc2O[C@@H]1CN(C)Cc1ccc(C(=O)Nc2ccccc2N)cc1 | 5.75 µM
44 | O=C1Nc2ccccc2C1=Nc1ccccc1-c1ccccc1 | 11.4 µM
45 | C[C@]12CC[C@H](O)C[C@H]1CC[C@@H]1[C@@H]2C[C@@H](O)[C@]2(C)[C@@H](C3=CC(=O)OC3)CC[C@]12O | 1 µM
46 | C[C@@H]1CN([C@H](C)CO)C(=O)c2cc(NC(=O)Nc3ccccc3)ccc2O[C@@H]1CN(C)Cc1ccc(C(=O)Nc2ccccc2N)cc1 | 8.74 µM
47 | CCOc1cc(/C=N/Nc2cc(C)nc(-n3nc(C)cc3C)n2)ccc1O | 35.8 µM
48 | COc1ccc(C2=Nn3c([n+](C)c4ccccc43)SC2)cc1 | 46.5 µM
49 | C[C@H](CO)N1C[C@H](C)[C@@H](CN(C)Cc2ccc(Oc3ccccc3)cc2)Oc2ccc(NS(=O)(=O)c3ccc(Cl)cc3)cc2CC1=O | 22.8 µM
50 | CCOc1cc(N2CCC(O)CC2)ccc1Nc1ncc2c(n1)N(C)c1ccccc1C(=O)N2C | 2.01 µM

Row | Compound | AC35
51 | COc1cc(/C=N/NS(=O)(=O)c2ccc3ccccc3c2)ccc1OCc1ccc(C(=O)O)cc1 | 2.91 µM
52 | O=C(O)c1ccc(N/N=C/c2ccc(OC(=O)c3cccc(Cl)c3)cc2)cc1 | 7.06 µM
53 | O=C(Nc1ccc(OC(=O)N2CCCCC2)cc1)N1CCOCC1 | 4.3 µM
54 | CC(=O)ON=C1C=CC(=C(C#N)c2ccccc2)C=C1 | 13.3 µM
55 | Oc1c(Cl)cc(Cl)c(Cl)c1Cc1c(O)c(Cl)cc(Cl)c1Cl | 35.3 µM
56 | O=C(CN1C(=O)C(=O)c2ccccc21)c1ccc(Cl)cc1 | 34.2 µM
57 | CCCCCCCCNC(C)C(O)c1ccc(SC(C)C)cc1 (configuration not stated) | 9.79 µM
58 | C=C(C(=O)c1ccccc1)C(C(=C)C(=O)c1ccccc1)c1ccc(OC)cc1 | 4.37 µM
59 | O=c1cc(CN2CCN(Cc3ccccc3)CC2)c2ccc(O)c(O)c2o1 | 23.3 µM
60 | O=C(Nc1nc(-c2ccc(F)c(F)c2)cs1)c1ccc(OCC2CCCO2)cc1 (configuration not stated) | 30 µM
61 | COc1ccc(/C=C2/SC(=S)N(CCCC(=O)Nc3ccccc3C(=O)O)C2=O)cc1 | 5.83 µM
62 | CCC1=Nc2cc(C(=O)NCC3CCCO3)ccc2Sc2ccc(Br)cc21 (configuration not stated) | 6.5 µM
63 | COC(=O)c1ccccc1-c1c2ccc(=N)cc-2oc2cc(N)ccc12 | 2.83 µM
64 | C[C@H](CO)N1C[C@H](C)[C@H](CN(C)Cc2ccc(C(=O)Nc3ccccc3N)cc2)Oc2c(cccc2N(C)C)C1=O | 12.9 µM
65 | Cc1ccc(S(=O)(=O)N(C)C[C@@H]2Oc3ccc(NC(=O)CCCCCC(=O)Nc4ccccc4N)cc3CC(=O)N([C@@H](C)CO)C[C@@H]2C)cc1 | 11 µM
66 | CN(C)c1ncnc2c1ccn2C1OC(CO)C(O)C1O (configuration not stated) | 3.44 µM
67 | CN=c1scc(-c2ccccc2F)n1/N=C/c1ccc(O)c(O)c1O | 15.7 µM
68 | C/C(=N\OCc1cccc(C(=O)O)c1)c1ccc(Cl)cc1 | 0.832 µM
69 | CCCCCCCCCCCCCCCCn1cc[n+](C)c1 | 10.3 µM
70 | COc1ccc(OC)c(/C=C/c2ccnc3ccccc23)c1 | 2.4 µM
71 | C[C@@H]1CN([C@H](C)CO)C(=O)c2cc(NC(=O)CCCCCC(=O)Nc3ccccc3N)ccc2O[C@@H]1CN(C)Cc1ccc(Cl)c(Cl)c1 | 5.24 µM
72 | CCOc1ccc(/C=C2\CCc3ccccc3C2=O)cc1 | 9.24 µM
73 | Cc1ccc(C(C(=O)NCc2ccco2)N(C(=O)CNC(=O)c2cccs2)c2c(C)cc(C)cc2C)cc1 (configuration not stated) | 42 µM
74 | C[C@@H]1O[C@@H](O[C@H]2C[C@@H](O)[C@]3(CO)[C@H]4[C@H](O)C[C@]5(C)[C@@H](C6COC(=O)C6)CC[C@]5(O)[C@@H]4CC[C@]3(O)C2)[C@H](O)[C@H](O)[C@H]1O (some centres not stated) | 1.24 µM
75 | C(=N\Nc1ccc2ccccc2n1)/c1ccc2c(c1)OCCO2 | 0.728 µM

Row | Compound | AC35
76 | O=C1Nc2cc(C(=O)NCCN3CCCCCC3)ccc2S/C1=C\c1ccccc1 | 11.6 µM
77 | C[C@@H]1CN([C@@H](C)CO)C(=O)c2cc(NS(=O)(=O)c3ccc(F)cc3)ccc2O[C@@H]1CN(C)Cc1ccc(C(=O)Nc2ccccc2N)cc1 | 9.48 µM
78 | COc1ccc(S(=O)(=O)Nc2ccc3c(c2)C(=O)N([C@H](C)CO)C[C@@H](C)[C@@H](CN(C)Cc2ccc(C(=O)Nc4ccccc4N)cc2)O3)cc1 | 5.11 µM
79 | C=C1C(=O)[C@@]23[C@H](O)C[C@@H]4C(C)(C)CC[C@H](O)[C@@]4(C)[C@@H]2CC[C@@H]1[C@H]3O | 9.06 µM
80 | Cc1ccc(/C=N/Nc2ccnc3cc(Cl)ccc23)c(C)c1 | 15.3 µM
81 | COc1ccc(/C=C/C(=O)c2ccc(C(=O)/C=C/c3ccc(OC)c(OC)c3)cc2)cc1OC | 6.78 µM
82 | CC(C)c1oc(=O)cc2c1[C@@H](O)[C@H]1OC(=O)[C@@]3(C)CC[C@@H](O)[C@@]2(C)C13 (some centres not stated) | 4.21 µM
83 | CCc1nc(N)nc(N)c1-c1ccc(Cl)cc1 | 5.12 µM
84 | CN=c1scc(-c2ccccc2F)n1/N=C/c1ccc[nH]1 | 0.194 µM
85 | COc1ccc(S(=O)(=O)N2CCCc3nc(-c4ccc(F)cc4)ccc32)cc1 | 4.87 µM
86 | Cc1cc(-c2nc3ccccc3s2)ccc1N | 7.98 µM
87 | Cc1nn(-c2ccc(F)cc2)c2nc(N)c(C#N)c(-c3ccc(O)c(O)c3)c12 | 22.2 µM
88 | O=C(N/N=C/c1cnc(N2CCCCC2)s1)c1ccc(C(F)(F)F)cc1 | 56.8 µM
89 | Cc1ccccc1N=CC1=C(O)c2ccccc2C1=O | 2.72 µM
90 | Nc1cc2c(cc1Br)[nH]c(=O)c1ccccc12 | 43.3 µM
91 | C[C@@H]1CN([C@@H](C)CO)C(=O)c2cccc(NS(=O)(=O)c3ccc(Cl)cc3)c2O[C@@H]1CN(C)Cc1ccc(C(=O)Nc2ccccc2N)cc1 | 5.31 µM
92 | O=C(O)c1ccc2cc(-c3ccccc3)[nH]c2c1 | 6.18 µM
93 | CCOc1ccc(OCc2ccc(C(=O)NN=Cc3ccc[nH]3)cc2)cc1 | 0.461 µM
94 | CCCn1c(C)cc(C(=O)CN2C(=O)c3ccccc3S2(=O)=O)c1C | 1.25 µM
95 | CN(c1ccc(NC(=O)CCc2c[nH]c3ccccc23)cc1)c1ccccn1 | 4.96 µM
96 | C(=N\Nc1nc2ccccc2s1)/c1ccccn1 | 0.77 µM
97 | N#CC1=C(N)Oc2cc(N)ccc2C1c1cccc(Br)c1 (configuration not stated) | 0.542 µM
